Results as given in patent US6500431B1, “Inhibitors of angiogenesis and tumor growth” (University of Southern California, priority 1998, dated 2002).
No end group written: not given here.

Columns and labels:
Type in all cases: cell-based
KS Y-1 cells = assay: KS Y-1 cell proliferation assay (MTT); details: for Cell Proliferation Activity (% of control), KSY-1: concentration not printed; for Cell Proliferation Activity (% of control), KSY-1 / KS Cell Proliferation, % of Control: 5 days, MTT; for KS Cell Proliferation, % of Control: 7,500 KS Y-1 cells/well
Experimental: (§1) To determine if Saposin B polypeptides had anti-angiogenic activity, a series of overlapping polypeptides were synthesized and tested in the KS Y-1 cell proliferation assay. The overlapping polypeptides are SEQ ID NOS:13 though 42. Cell Proliferation assays in either KS cells or fibroblast. Cells were plated in 48 well plates at equal numbers in appropriate culture medium. Cells were treated with the test compounds at various concentrations on day one, and on day 3. MTT was done on day 5. KS cells were used to represent the activated endothelial cells, while fibroblast cells represent the control cells. The results are remarkable for the lack of toxicity to the fibroblast relative to the activated endothelial cells/KS cells.

T1 cells = assay: Fibroblast proliferation assay (MTT); details: for Cell Proliferation Activity (% of control), T1: concentration not given, 5 days; for Fibroblast Proliferation, % of Control: 5000 T1 cells/well, 7 days
Experimental: as §1, with “MTT was done on day 5.” left out

[1] = test system: endothelial cells (HUVEC); assay: Growth inhibition of endothelial cells; details: FIG. 1, 1D, 1E
Experimental: FIG. 1D: Activity of n-terminus decapeptide (DVCQDCIQMV; SEQ ID NO 21).
FIG. 1E: Activity of N-terminus pentapeptide (DVCQC; SEQ ID NO: 28).
By SDS-PAGE, the bacterial product was smaller than the eukaryotic protein. Because prokaryotically expressed proteins are not glycosylated, the difference in molecular weights probably represents the presence of carbohydrate in the eukaryotic protein. Recombinant proteins were then tested in KS, endothelial and control cell lines. Activity was found only in KS cell lines and endothelial cells.

[2] = first of two KSY-1 value columns
[3] = second of two KSY-1 value columns

| Substance | Cell Proliferation Activity (% of control), KSY-1 (KS Y-1 cells; [2]) | Cell Proliferation Activity (% of control), KSY-1 (KS Y-1 cells; [3]) | Cell Proliferation Activity (% of control), T1 (T1 cells) | Cell Proliferation Activity (% of control), T1 (T1 cells; first of two T1 value columns) | KS Cell Proliferation, % of Control (KS Y-1 cells; 1 μg/mL) | KS Cell Proliferation, % of Control (KS Y-1 cells; 5 μg/mL) | KS Cell Proliferation, % of Control (KS Y-1 cells; 10 μg/ml) | KS Cell Proliferation, % of Control (KS Y-1 cells; 50 μg/mL) | Fibroblast Proliferation, % of Control (T1 cells; 1 μg/mL) | Fibroblast Proliferation, % of Control (T1 cells; 10 μg/mL) | Fibroblast Proliferation, % of Control (T1 cells; 50 μg/mL) | growth inhibition of endothelial cells [1] | IC50 (KS Y-1 cells) |
| --- | --- | --- | --- | --- | --- | --- | --- | --- | --- | --- | --- | --- | --- |
| CQDCIQMV [SEQ ID NO:30] | 77 % of control | 35 % of control | 84 % of control | 92 % of control |  |  |  |  |  |  |  |  |  |
| DCIQMV [SEQ ID NO:23] | 68 % of control | 51 % of control |  |  | 88.7 % of Control | 83.5 % of Control | 68.7 % of Control | 51.3 % of Control |  |  |  |  |  |
| DVCQDC [SEQ ID NO:27] | 60 % of control | 22 % of control | 75 % of control | 88 % of control |  |  |  |  |  |  |  |  |  |
| DVCQDCI [SEQ ID NO:26] | 72 % of control | 40 % of control | 81 % of control | 96 % of control |  |  |  |  |  |  |  |  |  |
| DVCQDCIQ [SEQ ID NO:25] | 72 % of control | 39 % of control | 89 % of control | 98 % of control |  |  |  |  |  |  |  |  |  |
| DVCQDCIQM [SEQ ID NO:24] | 68 % of control | 46 % of control | 84 % of control | 96 % of control |  |  |  |  |  |  |  |  |  |
| DVCQDCIQMV [SEQ ID NO:21] | 29 % of control |  |  |  | 88.7 % of Control | 68.7 % of Control | 26.1 % of Control | 7.0 % of Control | 100.0 % of Control | 91.3 % of Control | 87.0 % of Control | Only endothelial cells show dose dependent growth inhibition |  |
| GDVCQ [SEQ ID NO:22] | 59 % of control | 28 % of control |  |  | 158.3 % of Control | 77.4 % of Control | 59.1 % of Control | 37.4 % of Control | 95.7 % of Control | 95.7 % of Control | 87.0 % of Control |  |  |
| GDVCQDSIQMV [SEQ ID NO:33, GDVCQDSIQMV] |  |  |  |  |  |  |  |  |  |  |  |  | 7.8 µM |
| GDVSQDCIQMV [SEQ ID NO:32, GDVSQDCIQMV] |  |  |  |  |  |  |  |  |  |  |  |  | 18 µM |
| GDVSQDSIQMV [SEQ ID NO:20] | 93 % of control | 84 % of control |  |  | 100.0 % of Control | 96.4 % of Control | 92.9 % of Control | 82.1 % of Control | 91.3 % of Control | 95.7 % of Control | 95.7 % of Control |  |  |
